25 compounds from patent US20240101570A1 (AMGEN INC., priority 2020, published 2024) can be followed below.

One test deals with HCT116 MTAP null cells. Briefly: HCT116 MTAP null cell proliferation / viability (CellTiter-Glo, 6 days). The note with it: HCT116-MTAP null, 144 h, HCT116 MTAP null cells, 6 days, CellTiter-Glo; read-out: HCT-116 MTAP null IC50. It is filed as cell-based. The method, then:
(§1) HCT116 MTAP null and WT cells were seeded in 96-well tissue culture plates in RPMI 1640 media+10% fetal bovine serum. Plates were incubated overnight at 37° C. and 5% CO2. Cells were then treated with an 8- or 9-point serial dilution of compound, using a top concentration of 1, or 10 μM, 1:3 serial dilution steps and, a DMSO-only control. Cells were incubated in the presence of drug for 6 days. Effects on cell viability were measured with the CellTiter-Glo® Luminescent Cell Viability Assay (Promega) per manufacturer's recommendation. Assay plates were read on an EnVision™ Multilabel Reader using the Ultra-Sensitive luminescence module. IC50 values were calculated with GraphPad Prism v 5.01 using symmetrical sigmoidal dose-response least squares fit with Hill slope fixed to −1 and top constrain to 100% or GeneData Screener using a 4-parameter logistic model to fit dose response curves.
(§2) Alternatively, compounds could be assayed with a 384 well plate format:
(§3) Compounds were pre-spotted into 384 well plates with a 22-point serial dilution of compound, using a top concentration of 10 or 50 μM, 1:2 serial dilution steps and, a DMSO-only control. HCT116 MTAP null and WT cells were then seeded as above and after 6 days effects on cell viability were measured with the CellTiter-Glo® Luminescent Cell Viability Assay (Promega). Assay plates were read as above and IC50 values were calculated with GeneData Screener using a 4-parameter logistic model to fit dose response curves. The reported IC50 represents the value where the curve transits 50% of control.
On the technique in general: In ATP-based viability assays light output follows the ATP content of the culture.

The test system of a further test is HCT116 WT cells. In words: HCT116 WT cell proliferation / viability (CellTiter-Glo, 6 days). It is filed as cell-based. Particulars: Homo sapiens, HCT-116, 144 h, HCT116 WT cells, 6 days, CellTiter-Glo; read-out: HCT-116 WT IC50. The method, then: as §1, §2, §3

In general, IC50 refers to the concentration needed to halve the response being measured. Take `Cn1ncc2c(N)nc3cc(Cl)c(C(=O)N(Cc4ccc(C(F)(F)F)nn4)C4CCC4)cc3c21` [Example 799, 4-amino-7-chloro-N-cyclobutyl-1-methyl-N-((6-(trifluoromethyl)-3-pyridazinyl)methyl)-1H-pyrazolo[4,3-c]quinoline-8-carboxamide]: the IC50 in the test with HCT116 MTAP null cells amounted to 8 nM; in the test on HCT116 WT cells, 263 nM.

In the case of `CCOc1ccc(CN(C(=O)c2cc3c4c(c(N)nc3cn2)COC4)[C@H](C)c2ncccn2)nn1` [Example 749, 4-amino-N-((6-ethoxy-3-pyridazinyl)methyl)-N-((1R)-1-(2-pyrimidinyl)ethyl)-1,3-dihydrofuro[3,4-c][1,7]naphthyridine-8-carboxamide], the IC50 with HCT116 MTAP null cells is 177 nM; with HCT116 WT cells, 3340 nM.

For the compound `Nc1nc2cc(F)c(C(=O)N(Cc3ccc(C(F)(F)F)nn3)CC3CC3)cc2c2c1COC2` [Example 730, 4-amino-N-(cyclopropylmethyl)-7-fluoro-N-((6-(trifluoromethyl)-3-pyridazinyl)methyl)-1,3-dihydrofuro[3,4-c]quinoline-8-carboxamide], the figures for the IC50 in the test with HCT116 MTAP null cells and in the test on HCT116 WT cells were 17 nM and 620 nM, respectively.

On to `CCN(C(=O)c1cc2c3c(c(N)nc2cc1F)COC3)[C@H](C)c1ccc(C(F)(F)F)cn1` [Example 762, 4-amino-N-ethyl-7-fluoro-N-((1R)-1-(5-(trifluoromethyl)-2-pyridinyl)ethyl)-1,3-dihydrofuro[3,4-c]quinoline-8-carboxamide], for which the figures for the IC50 in the test with HCT116 MTAP null cells and in the test on HCT116 WT cells were 26 nM and 621 nM, respectively.

Take `Cn1cc(N(Cc2ccc(C(F)F)cn2)C(=O)c2cc3c4c(c(N)nc3cn2)COC4)cn1` [Example 691, 4-amino-N-((5-(difluoromethyl)-2-pyridinyl)methyl)-N-(1-methyl-1H-pyrazol-4-yl)-1,3-dihydrofuro[3,4-c][1,7]naphthyridine-8-carboxamide]: the values for the IC50 in the test with HCT116 MTAP null cells and in the test on HCT116 WT cells were 127 nM and 3880 nM, respectively.

Regarding `CC(C)N(C(=O)c1cc2c3c(c(N)nc2cn1)COC3)[C@H](C)c1ccc(C(F)(F)F)cn1` (single isomer, unassigned) [Example 848], the IC50 in the test on HCT116 MTAP null cells is 453 nM; in the test with HCT116 WT cells it was 11400 nM.

On to `CCN(C(=O)c1cc2c3c(c(N)nc2cn1)COC3)[C@H](C)c1ccc(C(F)(F)F)nn1` [Example 763, 4-amino-N-ethyl-N-((1R)-1-(6-(trifluoromethyl)-3-pyridazinyl)ethyl)-1,3-dihydrofuro[3,4-c][1,7]naphthyridine-8-carboxamide], for which the half-maximal inhibitory concentration (IC50) in the test with HCT116 MTAP null cells was 113 nM; in the test with HCT116 WT cells, 4810 nM.

Consider `C[C@H](c1ncccn1)N(Cc1ccc(C(F)(F)F)cn1)C(=O)c1ccc2nc(N)c3c(c2c1)CCOC3` [Example 887, 5-amino-N-[(1R)-1-pyrimidin-2-ylethyl]-N-[[5-(trifluoromethyl)-2-pyridyl]methyl]-2,4-dihydro-1H-pyrano[3,4-c]quinoline-9-carboxamide], for which the IC50 with HCT116 MTAP null cells is 25 nM; in the test with HCT116 WT cells, 496 nM.

With `Cn1cc(N(Cc2ccc(C(F)(F)F)cn2)C(=O)c2cc3c4c(c(N)nc3cn2)CCC4)cn1` [Example 492, 6-amino-N-(1-methyl-1H-pyrazol-4-yl)-N-((5-(trifluoromethyl)-2-pyridinyl)methyl)-8,9-dihydro-7H-cyclopenta[c][1,7]naphthyridine-2-carboxamide], the IC50 in the test on HCT116 MTAP null cells was 48 nM; in the test with HCT116 WT cells, 622 nM.

For `CC(C)N(Cc1ccc(C(F)(F)F)cn1)C(=O)c1ccc2[nH]c(=O)n3nccc3c2c1` [Example 431, 5-oxo-N-(2-propanyl)-N-((5-(trifluoromethyl)-2-pyridinyl)methyl)-5,6-dihydropyrazolo[1,5-c]quinazoline-9-carboxamide], the figures for the IC50 with HCT116 MTAP null cells and in the test on HCT116 WT cells were 14300 nM and 23500 nM, respectively.

On to `C[C@H]1OCc2c1c(N)nc1ccc(C(=O)N(Cc3ccc(C(F)(F)F)cn3)CC(C)(C)C)cc21` [Example 338, (3R)-4-amino-N-(2,2-dimethylpropyl)-3-methyl-N-((5-(trifluoromethyl)-2-pyridinyl)methyl)-1,3-dihydrofuro[3,4-c]quinoline-8-carboxamide], for which the values for the IC50 with HCT116 MTAP null cells and in the test with HCT116 WT cells were 406 nM and 5830 nM, respectively.

Turning to `CN(Cc1ccc(C2CC2)nn1)C(=O)c1cc2c3c(c(N)nc2cc1Cl)COC3` [Example 519, 4-amino-7-chloro-N-((6-cyclopropyl-3-pyridazinyl)methyl)-N-methyl-1,3-dihydrofuro[3,4-c]quinoline-8-carboxamide], the half-inhibitory concentration (IC50) in the test on HCT116 MTAP null cells came out at 187 nM; in the test with HCT116 WT cells, 14000 nM.

As to `C[C@H](c1ccc(C(F)(F)F)nn1)N(C)C(=O)c1cc2c3c(c(N)nc2cc1F)COC3` (single isomer, unassigned) [Example 858], the 50% inhibitory concentration (IC50) with HCT116 MTAP null cells turned out to be 41 nM; in the test on HCT116 WT cells, 3330 nM.

In the case of `CCN(C(=O)c1ccc2nc(N)c3c(c2c1)COC3)[C@H](C)c1ccc(C#N)cn1` (single isomer, unassigned) [Example 838], the results for the concentration for half-maximal inhibition (IC50) in the test on HCT116 MTAP null cells and in the test on HCT116 WT cells were 161 nM and 8590 nM, respectively.

Consider `C[C@H](c1ncccn1)N(Cc1ccc(C#N)c(Cl)n1)C(=O)c1ccc2nc(N)c3c(c2c1)COC3` [Example 679, 4-amino-N-((6-chloro-5-cyano-2-pyridinyl)methyl)-N-((1R)-1-(2-pyrimidinyl)ethyl)-1,3-dihydrofuro[3,4-c]quinoline-8-carboxamide], for which the half-maximal inhibitory concentration (IC50) is 5 nM in the test with HCT116 MTAP null cells and 108 nM in the test on HCT116 WT cells.

As to `COC[C@@H](C)N(Cc1ccc(Br)nn1)C(=O)c1cc2c3c(c(N)nc2cn1)COC3` [Example 680, 4-amino-N-((6-bromo-3-pyridazinyl)methyl)-N-((2R)-1-methoxy-2-propanyl)-1,3-dihydrofuro[3,4-c][1,7]naphthyridine-8-carboxamide], the IC50 with HCT116 MTAP null cells is 91 nM; in the test on HCT116 WT cells, 2840 nM.

Regarding `C[C@H](c1ncccn1)N(Cc1ccc(Cl)cn1)C(=O)c1ccc2nc(N)c3c(c2c1)COC3` [Example 439, 4-amino-N-((5-chloro-2-pyridinyl)methyl)-N-((1R)-1-(2-pyrimidinyl)ethyl)-1,3-dihydrofuro[3,4-c]quinoline-8-carboxamide], the IC50 was 7 nM in the test with HCT116 MTAP null cells and 138 nM in the test on HCT116 WT cells.

Consider `CC(C)N(Cc1ccc(C(F)(F)F)cn1)C(=O)c1cc2c(cn1)nc(N)c1ccncc12` [Example 756, 5-amino-N-(2-propanyl)-N-((5-(trifluoromethyl)-2-pyridinyl)methyl)pyrido[4,3-c][1,7]naphthyridine-9-carboxamide], for which the values for the IC50 in the test with HCT116 MTAP null cells and in the test with HCT116 WT cells were 49 nM and 744 nM, respectively.

`C[C@@H](c1ncc(F)cn1)N(CCOC(F)(F)F)C(=O)c1cc2c3c(c(N)nc2cc1F)COC3` (single isomer, unassigned) [Example 833]: the IC50 with HCT116 MTAP null cells came out at 2560 nM; in the test on HCT116 WT cells, 27200 nM.

Consider `CC(C)N(Cc1ccc(C#N)cn1)C(=O)c1cc2c3c(c(N)nc2cc1F)COC3` [Example 477, 4-amino-N-((5-cyano-2-pyridinyl)methyl)-7-fluoro-N-(2-propanyl)-1,3-dihydrofuro[3,4-c]quinoline-8-carboxamide], for which the 50% inhibitory concentration (IC50) in the test on HCT116 MTAP null cells came out at 655 nM; with HCT116 WT cells, 19400 nM.

Consider `CO[C@@H]1COCC[C@H]1N(Cc1ccc(C(F)(F)F)cn1)C(=O)c1ccc2nc(N)c3c(c2c1)COC3` (racemic) [Example 459, 4-amino-N-((3R,4S)-3-methoxytetrahydro-2H-pyran-4-yl)-N-((5-(trifluoromethyl)-2-pyridinyl)methyl)-1,3-dihydrofuro[3,4-c]quinoline-8-carboxamide and 4-amino-N-((3S,4R)-3-methoxytetrahydro-2H-pyran-4-yl)-N-((5-(trifluoromethyl)-2-pyridinyl)methyl)-1,3-dihydrofuro[3,4-c]quinoline-8-carboxamide], for which the IC50 with HCT116 MTAP null cells is 29 nM; in the test with HCT116 WT cells, 305 nM.

`C[C@H]1OCc2c1c(N)nc1ccc(C(=O)N(Cc3ccc(C(F)(F)F)cn3)C3CC3)cc21` [Example 351, (3R)-4-amino-N-cyclopropyl-3-methyl-N-((5-(trifluoromethyl)-2-pyridinyl)methyl)-1,3-dihydrofuro[3,4-c]quinoline-8-carboxamide]: the concentration for half-maximal inhibition (IC50) came to 48 nM in the test with HCT116 MTAP null cells and 3510 nM with HCT116 WT cells.

Consider `Nc1nc2ncc(C(=O)N(Cc3ccc(C(F)(F)F)cn3)CC3CC3)cc2c2c1COC2` [Example 321, 4-amino-N-(cyclopropylmethyl)-N-((5-(trifluoromethyl)-2-pyridinyl)methyl)-1,3-dihydrofuro[3,4-c][1,8]naphthyridine-8-carboxamide], for which the 50% inhibitory concentration (IC50) in the test with HCT116 MTAP null cells was found to be 226 nM; in the test with HCT116 WT cells, 3790 nM.

On to `Nc1nc2ccc(C(=O)N(Cc3ccc(C(F)(F)F)cn3)CC(F)(F)F)cc2c2c1COC2` [Example 483, 4-amino-N-(2,2,2-trifluoroethyl)-N-((5-(trifluoromethyl)-2-pyridinyl)methyl)-1,3-dihydrofuro[3,4-c]quinoline-8-carboxamide], for which the half-inhibitory concentration (IC50) amounted to 458 nM in the test on HCT116 MTAP null cells and 7290 nM in the test with HCT116 WT cells.

For the compound `Nc1nc2ccc(C(=O)N(Cc3ccc(C(F)(F)F)nn3)C3CCC3)cc2c2c1COC2` [Example 669, 4-amino-N-cyclobutyl-N-((6-(trifluoromethyl)-3-pyridazinyl)methyl)-1,3-dihydrofuro[3,4-c]quinoline-8-carboxamide], the IC50 turned out to be 73 nM in the test on HCT116 MTAP null cells and 3070 nM with HCT116 WT cells.
